Patent US8562986B2, “Engineered anti-alpha V-integrin hybrid antibodies” (Merck Patent GmbH, priority 2007, dated 2013)
Like-named read-outs stand apart in the source and are kept apart here.

Tested on: HUVEC
Assay: cells
Details: for additive effect with Cilengitide: chemotherapeutic combined with Cilengitide; for additive effect with DI-17E6: chemotherapeutic combined with DI-17E6; for additive effect with Mab 17E6: chemotherapeutic combined with Mab 17E6
Experimental: The experimental design gives answer to the question whether blockade of the one lowered the IC50 of the other for blockade endothelial cell growth in the presence of tumor growth factors VEGFA and FGF2.
Plates were coated with 100 μl VN at 1 μg/ml in PBS per 96-well at 4° C. overnight. […] When added in combination the two test substances were mixed at the starting concentrations and the mixture was serially diluted as for the single agents alone. In some assays the chemotherapeutics were serially diluted in the presence of a constant amount of the alpha V blockers at the IC50 or IC70 concentrations. Plates were incubated for 72 hours, then relative cell number was determined by the addition of 20 ul/well Alamar Blue (Resazurin).
Points were run in duplicate or in triplicate. Reagent blanks, containing media plus Alamar Blue without cells, were run on each plate.
Tests were routinely run using HUVEC in media containing 10 ng/ml FGF-2 or HDMVEC in media containing 10 ng/ml VEGF.

[1] = HUVEC, 10 ng/ml FGF-2, 72 hours, single agent
[2] = Homo sapiens, HUVEC, 72 h, 10 ng/ml FGF-2, 72 hours, single agent

| Compound | IC50 [1] | additive effect with Cilengitide | additive effect with DI-17E6 | additive effect with Mab 17E6 | IC50 [2] | IC50 (Homo sapiens, HUVEC, 72 h) | IC50 (Homo sapiens, HUVEC, read-out: IC50 in combination with 17E6, HUVEC, combination with 17E6) | IC50 (Homo sapiens, HUVEC, read-out: IC50 in combination with Cilengitide, HUVEC, combination with Cilengitide) | IC50 (Homo sapiens, HUVEC, read-out: IC50 in combination with DI-17E6, HUVEC, combination with DI-17E6) | IC50 (in words) [1] |
| --- | --- | --- | --- | --- | --- | --- | --- | --- | --- | --- |
| O=c1[nH]cc(F)c(=O)[nH]1 [5FU] | 14.5 µM | yes | yes | yes | – | – | – | – | – | – |
| CC[C@@]1(O)C(=O)OCc2c1cc1n(c2=O)Cc2cc3ccccc3nc2-1 [Camptothecin] | – | yes | yes | yes | 0.08 µM | – | – | – | – | – |
| N.N.[Cl][Pt][Cl] [Cisplatinin] | 13.2 µM | yes | yes | yes | – | – | – | – | – | – |
| COc1cccc2c1C(=O)c1c(O)c3c(c(O)c1C2=O)C[C@@](O)(C(=O)CO)C[C@@H]3O[C@H]1C[C@H](N)[C@H](O)[C@H](C)O1 [Doxorubicin] | – | yes | yes | yes | 0.2 µM | – | – | – | – | – |
| C[C@]12CC[C@@H]3c4ccc(OC(=O)N(CCCl)CCCl)cc4CC[C@H]3[C@@H]1CC[C@@H]2O [Estramustine] | – | no | no | no | – | 182 µM | – | – | – | – |
| COc1cc([C@@H]2c3cc4c(cc3[C@@H](O[C@@H]3O[C@@H]5CO[C@@H](C)O[C@H]5[C@H](O)[C@H]3O)[C@H]3COC(=O)[C@H]23)OCO4)cc(OC)c1O [Etoposide] | – | yes | yes | yes | 0.7 µM | – | – | – | – | – |
| N[C@@H](Cc1ccc(N(CCCl)CCCl)cc1)C(=O)O [Melphalan] | – | yes | yes | yes | – | 11.4 µM | – | – | – | – |
| CC(=O)O[C@H]1C(=O)[C@@]2(C)[C@H]([C@H](OC(=O)c3ccccc3)[C@]3(O)C[C@H](OC(=O)[C@H](O)[C@@H](NC(=O)c4ccccc4)c4ccccc4)C(C)=C1C3(C)C)[C@]1(OC(C)=O)CO[C@@H]1C[C@@H]2O [Taxol, Paclitaxel] | 0.3 ng/mL | yes | yes | yes | 0.27 ng/mL | – | 0.18 ng/mL | 0.13 ng/mL | 0.1 ng/mL | – |
| Cn1nnc2c(C(N)=O)ncn2c1=O [Temozolmide] | – | no | no | no | – | – | – | – | – | inactive |
| CC[C@]1(O)C[C@H]2CN(CCc3c([nH]c4ccccc34)[C@@](C(=O)OC)(c3cc4c(cc3OC)N(C=O)[C@H]3[C@@](O)(C(=O)OC)[C@H](OC(C)=O)[C@]5(CC)C=CCN6CC[C@]43[C@@H]65)C2)C1 [Vincrisitin] | – | yes | yes | yes | 0.0007 µM | – | – | – | – | – |
